# Measurements: patent US12337024B2, “Larazotide formulations” (Interlude Biopharma Co., priority 2019, dated 2025)
# Read-outs that look alike come from different tables or passages of the source. Ends that are not written are not given here.
# Legend:
# mice on the Western diet = tested on: mice on the Western diet
# Description: 77 DIAMOND™ mice were placed on either normal chow (NDNW) or Western Diet (WDSW) and aged up to 8, 20, 28, 36, and 40 weeks, then dosed with 4 kDa FITC-dextran at 600 mg/kg body weight by gavage. Four hours after the dosing, at least 20 μL of serum was taken by tail vein nick. A competition ELISA, which measures small dextran polymers (conjugated or unconjugated), was used to quantify serum dextran concentration.
# The subsequent experiment evaluated the effects of orally administered larazotide acetate to mice on the Western diet. The study design is depicted in FIG. 2. Specifically, 8 groups of mice were placed on WDSW diets for 16 weeks and administered larazotide (dosed in drinking water or oral gavage), pioglitazone comparator, or vehicle from 8-16 weeks. Improvement in leaky gut was assessed by dosing the mice with unconjugated dextran at 600 mg/kg via oral gavage at baseline and end of study, serum was collected 4 hours later, and serum dextran concentrations were measured.
# tight junction = test: Activity as tight junction regulators
# celiac disease symptoms = conditions: clinical trials, cited from earlier work
substance,measurement,setting,value
GGVLVQPG [larazotide],gut integrity,"mice on the Western diet; mice on Western diet, larazotide from 8-16 weeks, drinking water or oral gavage, FIG. 3",improved gut integrity
same,activity as tight junction regulator when mixed with fragments,tight junction; full length larazotide mixed with fragments GVLVQPG and VLVQPG,activity is completely abolished
same,reduction of celiac disease symptoms,"celiac disease symptoms; higher doses (e.g., 1 mg and 2 mg doses)","attenuation of activity, or no activity at all"
same,reduction of celiac disease symptoms,"celiac disease symptoms; lower doses (e.g., 0.5 mg dose)",benefit at reducing celiac disease symptoms
GVLVQPG (Synthetic polymer) [larazotide-derived fragment missing N-terminal glycine residue],activity as tight junction regulators,tight junction,inactive
VLVQPG (Synthetic polymer) [larazotide-derived fragment missing N-terminal glycine residues],activity as tight junction regulators,tight junction,inactive
larazotide acetate,serum dextran concentrations,"mice on the Western diet; mice on Western diets, various doses, serum 4 hours after dextran 600 mg/kg gavage",successful in lowering the serum dextran concentrations
